Like-named read-outs stand apart in the source and are kept apart here.
Assays:
Assay type in all cases: in vivo
[1] = test system: Corn Earworm (CEW) (Helicoverpa zea); experiment: Bioassay on corn earworm (CEW), 128-well diet tray assay; details: Helicoverpa zea, read-out: % Mortality CEW 50 μg/cm^2
Method: (§1) Certain molecules disclosed in this document were tested against BAW and CEW using procedures described in the following examples. In the reporting of the results, the “BAW & CEW Rating Table” was used (See Table Section).
Bioassays on CEW (Helicoverpa zea)
Bioassays on CEW were conducted using a 128-well diet tray assay. […] Trays were covered with a clear self-adhesive cover and held at 25° C., 14:10 light-dark for five to seven days. Percent mortality was recorded for the larvae in each well; activity in the eight wells was then averaged. The results are indicated in the table entitled “Table 5: Biological Results” (See Table Section).

[2] = test system: Green Peach Aphid (GPA) (Myzus persicae); experiment: Bioassay on green peach aphid (GPA), foliar spray on cabbage seedlings; details: read-out: % Mortality GPA 200 ppm
Method: Certain molecules disclosed in this document were tested against GPA using procedures described in the following example. In the reporting of the results, the “GPA Rating Table” was used (See Table Section).
Cabbage seedlings grown in 3-inch pots, with 2-3 small (3-5 cm) true leaves, were used as test substrate. The seedlings were infested with 20-50 GPA (wingless adult and nymph stages) one day prior to chemical application. Four pots with individual seedlings were used for each treatment. Test compounds (2 mg) were dissolved in 2 mL of acetone/methanol (1:1) solvent, forming stock solutions of 1000 ppm test compound. […] A hand-held aspirator-type sprayer was used for spraying a solution to both sides of […] leaves until runoff. Reference plants (solvent check) were sprayed with the diluent only containing 20% by volume of acetone/methanol (1:1) solvent. Treated plants were held in a holding room for three days at approximately 25° C. and ambient relative humidity (RH) prior to grading. Evaluation was conducted by counting the number of live aphids per plant under a microscope. […] Corrected % Control=100*(X−Y)/X • where • X=No. of live aphids on solvent check plants and • Y=No. of live aphids on treated plants
The results are indicated in the table entitled “Table 5: Biological Results” (See Table Section).

[3] = test system: Beet Armyworm (BAW) (Spodoptera exigua); experiment: Bioassay on beet armyworm (BAW), 128-well diet tray assay; details: Spodoptera exigua, read-out: % Mortality BAW 50 μg/cm^2
Method: as §1
Bioassays on BAW (Spodoptera exigua)
Bioassays on BAW were conducted using a 128-well diet tray assay. […] Trays were covered with a clear self-adhesive cover and held at 25° C., 14:10 light-dark for five to seven days. Percent mortality was recorded for the larvae in each well; activity in the eight wells was then averaged. The results are indicated in the table entitled “Table 5: Biological Results” (See Table Section).

| SMILES | mortality at 50 µg/cm2 ([1]; corn earworm, 50 μg/cm^2) | mortality at 200 ppm ([2]; green peach aphid, 200 ppm) | mortality at 50 µg/cm2 ([3]; beet armyworm, 50 μg/cm^2) | mortality at 50 µg/cm2 [1] | mortality at 200 ppm [2] | mortality at 50 µg/cm2 [3] |
| --- | --- | --- | --- | --- | --- | --- |
| Cc1cccc(C)c1/N=C(/N/N=C/c1ccc(-c2ncn(-c3ccc(OC(F)(F)F)cc3)n2)cc1)SCc1ccc(S(C)(=O)=O)cc1 [Compound 17C] | 50 to 100% | 0 to 80% | 50 to 100% |  |  |  |
| Cc1cccc(C)c1/N=C(/N/N=C/c1ccc(-c2ncn(-c3ccc(OC(F)(F)F)cc3)n2)cc1)SCC(=O)NCC(N)C(=O)O (centres unmarked) [Compound 63C] | 50 to 100% | 0% | 50 to 100% |  |  |  |
| CCc1cccc(C)c1N1/C(=N/N=C/c2ccc(-c3ncn(-c4ccc(OC(F)(F)F)cc4)n3)cc2)SCC1C (centres unmarked) [Compound 156C] | 50 to 100% | 0 to 80% | 50 to 100% |  |  |  |
| Cc1cccc(C)c1/N=C(/N/N=C/c1ccc(-c2ncn(-c3ccc(OC(F)(F)F)cc3)n2)cc1)SCOC(=O)C(C)C [Compound 25C] | 50 to 100% | 0% | 50 to 100% |  |  |  |
| COc1ccc(N2/C(=N/N=C/c3ccc(-c4ncn(-c5ccc(OC(F)(F)F)cc5)n4)cc3)SCC2(C)O)c(C)c1 (centres unmarked) [Compound 245C] | 50 to 100% | 0 to 80% | 50 to 100% |  |  |  |
| Cc1ccccc1N1/C(=N/N=C/c2ccc(-c3ncn(-c4ccc(OC(F)(F)F)cc4)n3)cc2)SCC1C (centres unmarked) [Compound 154C] | 50 to 100% | 0 to 80% | 50 to 100% |  |  |  |
| CC1CS/C(=N\N=C\c2ccc(-c3ncn(-c4ccc(OC(F)(F)F)cc4)n3)cc2)N1c1c(Cl)cccc1Cl (centres unmarked) [Compound 157C] | 50 to 100% | 0 to 80% | 50 to 100% |  |  |  |
| CCCc1ccccc1N1/C(=N/N=C/c2ccc(-c3ncn(-c4ccc(OC(F)(F)F)cc4)n3)cc2)SCC1(C)O (centres unmarked) [Compound 256C] | 50 to 100% | 0 to 80% | 50 to 100% |  |  |  |
| Cc1ccc(C(C)C)c(N2/C(=N/N=C/c3ccc(-c4ncn(-c5ccc(OC(F)(F)F)cc5)n4)cc3)SCC2(C)O)c1 (centres unmarked) [Compound 253C] | 50 to 100% | 0% | 50 to 100% |  |  |  |
| COc1cc(Cl)c(/N=C(/N/N=C/c2ccc(-c3ncn(-c4ccc(OC(F)(F)F)cc4)n3)cc2)SCOC(=O)C(C)C)c(Cl)c1 [Compound 34C] |  | 0 to 80% |  |  |  |  |
| FC(F)(F)Oc1ccc(-n2cnc(-c3ccc(/C=N/N=C4\SCCCN4c4ccccc4-c4ccccc4)cc3)n2)cc1 [Compound 194C] | 50 to 100% | 0 to 80% | 50 to 100% |  |  |  |
| Cc1cccc(C)c1/N=C(/N/N=C/c1ccc(-c2ncn(-c3ccc(OC(F)(F)F)cc3)n2)cc1)SCc1ocnc1-c1ccccc1 [Compound 15C] | 50 to 100% | 80 to 100% | 50 to 100% |  |  |  |
| COc1cc(C)c(/N=C(/N/N=C/c2ccc(-c3ncn(-c4ccc(OC(F)(F)F)cc4)n3)cc2)SCC(=O)NCCCNC(=O)OC(C)(C)C)c(C)c1 [Compound 60C] | 50 to 100% | 0% | 50 to 100% |  |  |  |
| Cc1cccc(C)c1-n1c(C)cs/c1=N\N=C\c1ccc(-c2ncn(-c3ccc(OC(F)(F)F)cc3)n2)cc1 [Compound 175C] | 50 to 100% | 0% | 50 to 100% |  |  |  |
| Cc1cccc(C)c1/N=C(/N/N=C/c1ccc(-c2ncn(-c3ccc(OC(F)(F)F)cc3)n2)cc1)SCC#C[Si](C)(C)C [Compound 9C] |  |  |  | 50 to 100% | 0% | 50 to 100% |
| COc1cc(C)c(/N=C(/N/N=C/c2ccc(-c3ncn(-c4ccc(OC(F)(F)F)cc4)n3)cc2)SCOC(=O)C(C)OCC(F)(F)F)c(C)c1 (centres unmarked) [Compound 38C] | 50 to 100% | 0% | 50 to 100% |  |  |  |
| COc1cc(C)c(-n2c(C(=O)O)cs/c2=N\N=Cc2ccc(-c3ncn(-c4ccc(OC(F)(F)F)cc4)n3)cc2)c(C)c1 [Compound 80C] | 50 to 100% | 0% | 50 to 100% |  |  |  |
| Cc1cccc(C)c1N1C(=O)CS/C1=N\N=C\c1ccc(-c2ncn(-c3ccc(OC(F)(F)F)cc3)n2)cc1 [Compound 71C] | 50 to 100% | 0% | 50 to 100% |  |  |  |

| SMILES | mortality at 50 µg/cm2 ([1]; corn earworm, 50 μg/cm^2) | mortality at 200 ppm ([2]; green peach aphid, 200 ppm) | mortality at 50 µg/cm2 ([3]; beet armyworm, 50 μg/cm^2) | mortality at 50 µg/cm2 [1] | mortality at 200 ppm [2] | mortality at 50 µg/cm2 [3] |
| --- | --- | --- | --- | --- | --- | --- |
| Cc1cccc(C)c1/N=C(/N/N=C/c1ccc(-c2ncn(-c3ccc(OC(F)(F)F)cc3)n2)cc1)SCc1ccccc1 [Compound 10C] | 50 to 100% | 0% | 50 to 100% |  |  |  |
| CCOCC(=O)OCS/C(=N\c1c(C)cccc1C)N/N=C/c1ccc(-c2ncn(-c3ccc(OC(F)(F)F)cc3)n2)cc1 [Compound 22C] | 50 to 100% | 0 to 80% | 50 to 100% |  |  |  |
| Cc1cccc(C)c1N1CCS/C1=N\N=C\c1ccc(-c2ncn(-c3ccc(OC(F)(F)F)cc3)n2)cc1 [Compound 142C] | 50 to 100% | 0% | 50 to 100% |  |  |  |
| COc1ccc(N2CCCS/C2=N\N=C\c2ccc(-c3ncn(-c4ccc(OC(F)(F)F)cc4)n3)cc2)c(C)c1 [Compound 192C] | 50 to 100% | 0 to 80% | 50 to 100% |  |  |  |
| COc1cc(C)c(/N=C(/N/N=C/c2ccc(-c3ncn(-c4ccc(OC(F)(F)F)cc4)n3)cc2)SCOC(=O)C2CCCC2)c(C)c1 [Compound 43C] | 50 to 100% | 0 to 80% | 50 to 100% |  |  |  |
| COc1cc(C)c(/N=C(/N/N=C/c2ccc(-c3ncn(-c4ccc(OC(F)(F)F)cc4)n3)cc2)SCOC(=O)C(C)(C)C)c(C)c1 [Compound 40C] | 50 to 100% | 0 to 80% | 50 to 100% |  |  |  |
| CC(C)c1ccccc1N1/C(=N/N=C/c2ccc(-c3ncn(-c4ccc(OC(F)(F)F)cc4)n3)cc2)SC(C)C1(C)O (centres unmarked) [Compound 257C] | 50 to 100% | 0% | 50 to 100% |  |  |  |
| Cc1cccc(C)c1/N=C(/N/N=C/c1ccc(-c2ncn(-c3ccc(OC(F)(F)F)cc3)n2)cc1)SCc1ccccc1F [Compound 11C] | 50 to 100% | 0% | 50 to 100% |  |  |  |
| Cc1cccc(C)c1/N=C(/N/N=C/c1ccc(-c2ncn(-c3ccc(OC(F)(F)F)cc3)n2)cc1)SCOC(=O)C(C)OCC(F)(F)F (centres unmarked) [Compound 39C] |  | 0% |  |  |  |  |
| CCOCC(=O)OCS/C(=N\c1c(Cl)cc(OC)cc1Cl)N/N=C/c1ccc(-c2ncn(-c3ccc(OC(F)(F)F)cc3)n2)cc1 [Compound 32C] |  | 0 to 80% |  |  |  |  |
| CC(C)c1ccccc1/N=C1\SCCCN1/N=C/c1ccc(-c2ncn(-c3ccc(C(F)(F)F)cc3)n2)cc1 [Compound 87C, (2Z,NE)-2-((2-isopropylphenyl)imino)-N-(4-(1-(4-(trifluoromethyl)phenyl)-1H-1,2,4-triazol-3-yl)benzylidene)-1,3-thiazinan-3-amine] |  | 0 to 80% |  |  |  |  |
| COc1cc(C)c(/N=C(/N/N=C(\C)c2ccc(-c3ncn(-c4ccc(OC(F)(F)F)cc4)n3)cc2)SCOC(=O)C(C)C)c(C)c1 [Compound 26C] |  | 0% |  |  |  |  |
| COCCC(=O)S/C(=N\c1c(C)cccc1C)N/N=C/c1ccc(-c2ncn(-c3ccc(OC(F)(F)F)cc3)n2)cc1 [Compound 21C] |  | 0% |  |  |  |  |
| COc1cc(C)c(N2C(=O)CSC2=NN=Cc2ccc(-c3ncn(-c4ccc(OC(F)(F)F)cc4)n3)cc2)c(C)c1 (stereo in doubt) [Compound 69C, (Z)-3-(4-methoxy-2,6-dimethylphenyl)-2-((E)-(4-(1-(4-(trifluoromethoxy)phenyl)-1H-1,2,4-triazol-3-yl)benzylidene)hydrazono)thiazolidin-4-one] | 50 to 100% |  | 50 to 100% |  |  |  |
| COc1ccc(N2/C(=N/N=C/c3ccc(-c4ncn(-c5ccc(OC(F)(F)F)cc5)n4)cc3)SCC2C)c(C)c1 (centres unmarked) [Compound 162C] | 50 to 100% |  | 50 to 100% |  |  |  |
| O=C1CS/C(=N\N=C\c2ccc(-c3cn(-c4ccc(OC(F)(F)F)cc4)cn3)cc2)N1c1c(Cl)cccc1Cl [Compound 102C] | 50 to 100% |  | 50 to 100% |  |  |  |
| CC(C)c1ccccc1N1C(=O)CS/C1=N\N=C\c1ccc(-c2ncn(-c3ccc(C(F)(F)F)cc3)n2)cc1 [Compound 120C] | 50 to 100% |  | 50 to 100% |  |  |  |

Reference: US8916183B2, “Pesticidal compositions and processes related thereto” (priority 2012, dated 2014)
